How the values were obtained:
Type in all cases: cell-based
dTAG-HA SLC16A1 = molecular target: T1, dTAG-HA SLC16A1 (Homo sapiens, UniProt P53985+Q96SW2); assay: Targeted degradation of dTAG-tagged SLC16A1 (western blot); details: HAP1, 0.5 µM, 24, 48 or 72 hours
T1 construct: expressed in transfected cells
Protocol: (§1) (C)HAP1 cells expressing dTAG-HA SLC1A5, 2A3, 30A9, 35B2, MTCH2, and 33A1 were treated for 24 hours with 0.5 µM of dTAG7 or dTAG13, as indicated. HAP1 cells expressing dTAG-HA SLC2A1 and 16A1 were treated for 24 hrs with 0.5 µM of dTAG7. HAP1 cell lines expressing dTAG-HA SLC39A7, dTAG-HA SLC4A4, and SLC7A3-dTAG-HA were treated for 48 hrs with 0.5 µM of dTAG13.
(§2) SLC1A5, SLC2A1, SLC2A3, SLC16A1, SLC38A1, SLC38A2 were obtained as gateway-compatible pENTR/pDONR vectors from the Harvard PlasmID Repository. SLC39A7 was obtained from Dharmacon, GE Healthcare. The following vectors were synthesized by Genescript: SLC4A4, SLC7A3, SLC38A9, SLC25A1, SLC9A1, SLC9A2, SLC9A3, SLC9A4, SLC9A5, SLC9A6, SLC9A7, SLC9A8, and SLC9B2. […]
(§3) For immunoblotting, whole cell extracts were prepared using RIPA lysis buffer (25 mM Tris/HCl pH 7.6, 150 mM NaCl, 1% NP-40, 1% sodium deoxycholate, 0.1% SDS, EDTA-free protease inhibitor (Roche) and phosphatase inhibitors 2+3 (Sigma- Aldrich)). […] Protein extracts were quantified and normalized using the BCA assay (Thermo Scientific). […]
(§4) SLCs were ectopically expressed as fusions to a mutated FKBP domain, also known as the dTAG system. […]

dTAG-HA SLC2A1 = molecular target: T2, dTAG-HA SLC2A1 (Homo sapiens, UniProt P11166+Q96SW2); assay: Targeted degradation of dTAG-tagged SLC2A1 (western blot); details: HAP1, 0.5 µM, 24, 48 or 72 hours
T2 construct: expressed in transfected cells
Protocol: as §1, §2, §3, §4

Strep/HA SLC9A1 = molecular target: T3, Strep/HA SLC9A1 (Homo sapiens, UniProt P19634); assay: Selectivity across SLC9 family: degradation of exogenous Strep/HA SLC9A1; details: HAP1; 250 or 750 nM; 16 hours
T3 construct: expressed in transfected cells; host or cells: HAP1 (lentiviral, pRRL Strep-HA; cDNA synthesized by Genescript)
Protocol: (§5) (E) Selectivity of d9A1-2 was tested across HAP1 cell lines expressing Strep/HASLC9A1, 9A4, 9A5, 9A8, 9A2, 9B2, 9A6, 9A9, and 9A3. Cells were treated with varying concentrations of d9A1-2 for 16 hours, after which degradation of the exogenous SLCs was monitored.
(§6) SLC1A5, SLC2A1, SLC2A3, SLC16A1, SLC38A1, SLC38A2 were obtained as gateway-compatible pENTR/pDONR vectors from the Harvard PlasmID Repository. SLC39A7 was obtained from Dharmacon, GE Healthcare. The following vectors were synthesized by Genescript: SLC4A4, SLC7A3, SLC38A9, SLC25A1, SLC9A1, SLC9A2, SLC9A3, SLC9A4, SLC9A5, SLC9A6, SLC9A7, SLC9A8, and SLC9B2. SLC30A9, SLC33A1, SLC35B2, SLC25A26, and MTCH2 were a gift from the RESOLUTE consortium. cDNAs were transferred into gateway-compatible lentiviral expression vectors: pLX305 dTAG vectors (Addgene #91797/8) or pRRL Strep-HA (described previously43, EF1a promotor driven expression) using LR recombination (ThermoFisher Scientific). […]
as §3

Strep/HA SLC9A5 = molecular target: T4, Strep/HA SLC9A5 (Homo sapiens, UniProt Q14940); assay: Selectivity across SLC9 family: degradation of exogenous Strep/HA SLC9A5; details: HAP1; 250 or 750 nM; 16 hours
T4 construct: expressed in transfected cells; host or cells: HAP1 (lentiviral, pRRL Strep-HA; cDNA synthesized by Genescript)
Protocol: as §5, §6, §3

T4 sequence (Q14940 whole entry): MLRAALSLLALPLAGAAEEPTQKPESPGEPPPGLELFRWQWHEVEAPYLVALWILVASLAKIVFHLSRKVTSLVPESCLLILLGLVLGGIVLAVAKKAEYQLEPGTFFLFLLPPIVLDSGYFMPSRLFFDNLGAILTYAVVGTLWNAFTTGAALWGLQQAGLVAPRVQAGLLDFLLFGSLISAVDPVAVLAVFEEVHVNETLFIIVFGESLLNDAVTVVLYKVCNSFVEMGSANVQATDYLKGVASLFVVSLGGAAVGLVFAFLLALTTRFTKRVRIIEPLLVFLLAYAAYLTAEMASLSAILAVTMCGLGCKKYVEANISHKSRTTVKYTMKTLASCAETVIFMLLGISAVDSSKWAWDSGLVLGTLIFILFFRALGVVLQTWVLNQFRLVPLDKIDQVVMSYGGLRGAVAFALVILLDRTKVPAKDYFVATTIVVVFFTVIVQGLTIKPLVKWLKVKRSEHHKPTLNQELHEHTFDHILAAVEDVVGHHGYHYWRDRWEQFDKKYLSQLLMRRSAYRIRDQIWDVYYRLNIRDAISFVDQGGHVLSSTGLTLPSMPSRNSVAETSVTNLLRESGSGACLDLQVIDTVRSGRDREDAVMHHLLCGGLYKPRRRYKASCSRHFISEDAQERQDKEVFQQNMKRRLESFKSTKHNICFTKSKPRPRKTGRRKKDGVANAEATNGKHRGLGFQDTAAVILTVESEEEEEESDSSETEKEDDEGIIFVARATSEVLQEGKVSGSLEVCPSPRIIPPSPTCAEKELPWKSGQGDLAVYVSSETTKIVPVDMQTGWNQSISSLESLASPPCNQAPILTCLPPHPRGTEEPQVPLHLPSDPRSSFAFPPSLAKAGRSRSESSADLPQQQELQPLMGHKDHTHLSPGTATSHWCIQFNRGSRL
T1 sequence (P53985 with tags, fused parts or gaps): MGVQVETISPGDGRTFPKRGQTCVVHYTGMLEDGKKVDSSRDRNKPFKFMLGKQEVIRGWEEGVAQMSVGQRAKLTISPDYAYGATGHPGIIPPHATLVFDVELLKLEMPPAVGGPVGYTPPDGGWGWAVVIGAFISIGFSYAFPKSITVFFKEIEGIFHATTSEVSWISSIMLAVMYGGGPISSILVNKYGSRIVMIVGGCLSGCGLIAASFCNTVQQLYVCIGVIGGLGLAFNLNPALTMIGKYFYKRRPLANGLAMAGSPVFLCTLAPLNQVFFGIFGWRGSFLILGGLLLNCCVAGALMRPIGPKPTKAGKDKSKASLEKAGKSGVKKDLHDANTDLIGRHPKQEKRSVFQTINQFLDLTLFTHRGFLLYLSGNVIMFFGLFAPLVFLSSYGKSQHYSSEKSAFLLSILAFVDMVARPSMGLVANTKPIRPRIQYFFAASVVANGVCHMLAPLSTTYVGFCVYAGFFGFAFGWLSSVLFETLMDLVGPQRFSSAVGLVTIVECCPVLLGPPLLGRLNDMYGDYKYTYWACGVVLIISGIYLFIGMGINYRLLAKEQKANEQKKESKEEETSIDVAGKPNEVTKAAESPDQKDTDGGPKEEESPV
T1 sequence (Q96SW2 whole entry): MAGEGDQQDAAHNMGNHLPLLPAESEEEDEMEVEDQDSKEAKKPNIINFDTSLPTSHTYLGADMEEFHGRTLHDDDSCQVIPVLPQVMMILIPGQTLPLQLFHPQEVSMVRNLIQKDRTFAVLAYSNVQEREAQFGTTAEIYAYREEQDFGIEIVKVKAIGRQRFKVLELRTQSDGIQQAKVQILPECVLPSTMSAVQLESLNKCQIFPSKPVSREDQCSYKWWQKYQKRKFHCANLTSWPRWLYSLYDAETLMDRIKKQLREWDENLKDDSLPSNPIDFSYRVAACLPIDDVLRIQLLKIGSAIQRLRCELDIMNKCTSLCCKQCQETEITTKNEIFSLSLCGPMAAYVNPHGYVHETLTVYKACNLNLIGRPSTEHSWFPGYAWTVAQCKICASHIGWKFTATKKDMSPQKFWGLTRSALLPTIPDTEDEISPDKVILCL
T1 sequence (Q16531 whole entry partner): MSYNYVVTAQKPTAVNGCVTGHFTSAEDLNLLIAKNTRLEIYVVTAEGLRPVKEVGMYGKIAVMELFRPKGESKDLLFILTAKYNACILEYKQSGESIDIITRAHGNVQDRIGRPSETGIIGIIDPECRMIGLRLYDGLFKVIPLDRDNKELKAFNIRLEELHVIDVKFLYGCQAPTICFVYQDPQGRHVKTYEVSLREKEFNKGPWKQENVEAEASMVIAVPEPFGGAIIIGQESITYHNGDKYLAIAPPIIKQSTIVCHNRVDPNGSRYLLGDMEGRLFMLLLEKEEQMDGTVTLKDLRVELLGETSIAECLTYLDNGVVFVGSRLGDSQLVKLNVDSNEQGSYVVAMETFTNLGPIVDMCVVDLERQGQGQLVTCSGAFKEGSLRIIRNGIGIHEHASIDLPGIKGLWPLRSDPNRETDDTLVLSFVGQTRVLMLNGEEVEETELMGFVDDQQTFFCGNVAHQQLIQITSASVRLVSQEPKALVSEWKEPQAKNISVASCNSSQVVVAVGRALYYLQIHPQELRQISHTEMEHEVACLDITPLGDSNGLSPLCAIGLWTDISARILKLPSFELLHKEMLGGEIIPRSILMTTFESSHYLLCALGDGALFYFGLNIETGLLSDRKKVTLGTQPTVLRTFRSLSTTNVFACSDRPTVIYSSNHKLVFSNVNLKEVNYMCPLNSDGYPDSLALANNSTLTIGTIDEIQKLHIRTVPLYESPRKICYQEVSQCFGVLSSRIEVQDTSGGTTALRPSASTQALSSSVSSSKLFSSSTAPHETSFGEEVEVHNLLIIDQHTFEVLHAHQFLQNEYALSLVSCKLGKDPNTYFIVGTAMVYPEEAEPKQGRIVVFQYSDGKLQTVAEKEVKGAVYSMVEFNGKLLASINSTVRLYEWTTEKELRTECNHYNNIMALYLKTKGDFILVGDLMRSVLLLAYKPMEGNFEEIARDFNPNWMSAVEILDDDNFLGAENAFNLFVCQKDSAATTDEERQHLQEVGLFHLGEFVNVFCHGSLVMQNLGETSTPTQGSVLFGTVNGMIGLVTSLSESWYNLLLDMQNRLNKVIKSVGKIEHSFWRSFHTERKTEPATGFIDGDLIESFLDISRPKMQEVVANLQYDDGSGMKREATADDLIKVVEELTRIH
T3 sequence (P19634 whole entry): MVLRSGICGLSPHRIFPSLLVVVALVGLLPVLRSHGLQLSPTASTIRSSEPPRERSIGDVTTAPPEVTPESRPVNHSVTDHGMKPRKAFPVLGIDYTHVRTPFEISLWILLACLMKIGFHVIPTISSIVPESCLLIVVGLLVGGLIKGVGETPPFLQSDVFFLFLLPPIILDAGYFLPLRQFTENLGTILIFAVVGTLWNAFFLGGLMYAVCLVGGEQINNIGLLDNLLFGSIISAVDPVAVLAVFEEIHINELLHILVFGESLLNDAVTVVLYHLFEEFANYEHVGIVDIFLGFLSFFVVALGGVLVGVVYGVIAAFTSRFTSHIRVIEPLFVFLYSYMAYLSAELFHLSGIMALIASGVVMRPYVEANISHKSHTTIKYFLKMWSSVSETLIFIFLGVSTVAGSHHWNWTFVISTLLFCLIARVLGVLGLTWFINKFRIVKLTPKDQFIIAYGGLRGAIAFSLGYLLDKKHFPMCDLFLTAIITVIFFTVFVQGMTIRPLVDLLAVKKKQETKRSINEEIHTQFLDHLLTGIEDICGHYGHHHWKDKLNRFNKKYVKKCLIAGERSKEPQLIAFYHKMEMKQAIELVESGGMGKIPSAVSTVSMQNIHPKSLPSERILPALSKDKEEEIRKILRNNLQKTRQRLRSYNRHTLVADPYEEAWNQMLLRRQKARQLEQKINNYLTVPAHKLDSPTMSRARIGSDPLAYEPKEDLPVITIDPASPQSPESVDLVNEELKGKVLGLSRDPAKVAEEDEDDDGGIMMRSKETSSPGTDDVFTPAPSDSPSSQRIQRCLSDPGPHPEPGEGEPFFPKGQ
T2 sequence (P11166 with tags, fused parts or gaps): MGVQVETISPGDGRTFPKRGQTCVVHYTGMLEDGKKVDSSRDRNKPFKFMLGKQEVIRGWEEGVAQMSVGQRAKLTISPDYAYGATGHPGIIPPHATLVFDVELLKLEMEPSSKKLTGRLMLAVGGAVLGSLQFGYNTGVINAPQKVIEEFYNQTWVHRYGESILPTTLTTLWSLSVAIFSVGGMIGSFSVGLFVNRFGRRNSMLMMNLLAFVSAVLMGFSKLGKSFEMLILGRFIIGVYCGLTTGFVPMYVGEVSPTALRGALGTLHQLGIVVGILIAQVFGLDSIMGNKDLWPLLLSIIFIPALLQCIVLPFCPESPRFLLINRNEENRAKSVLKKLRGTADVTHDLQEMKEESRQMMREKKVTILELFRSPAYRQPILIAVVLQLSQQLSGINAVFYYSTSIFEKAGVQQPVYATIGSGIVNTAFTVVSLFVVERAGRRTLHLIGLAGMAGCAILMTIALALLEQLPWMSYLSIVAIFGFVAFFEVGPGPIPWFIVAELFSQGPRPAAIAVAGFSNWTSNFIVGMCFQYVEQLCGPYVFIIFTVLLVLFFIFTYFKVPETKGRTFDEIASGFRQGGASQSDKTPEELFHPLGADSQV
T2 sequence (Q96SW2 whole entry): as the sequence (Q96SW2 whole entry) above
T2 sequence (Q16531 whole entry partner): as the sequence (Q16531 whole entry partner) above

reversibility of degradation of the target SLC (dTAG-HA SLC16A1)	reversibility of degradation of the target SLC (dTAG-HA SLC2A1)	degradation of exogenous SLC9A1 (Strep/HA SLC9A1)	abundance of exogenous SLC9A5 (Strep/HA SLC9A5)	Compound
reversible degradation	reversible degradation			CC[C@H](C(=O)N1CCCC[C@H]1C(=O)O[C@H](CCc1ccc(OC)c(OC)c1)c1ccccc1OCC(=O)NCCCOCCOCCOCCCNC(=O)COc1cccc2c1C(=O)N(C1CCC(=O)NC1=O)C2=O)c1cc(OC)c(OC)c(OC)c1 (stereo partly shown) [dTAG7]
		most efficient degradation	not significantly affected	Cc1cc(-c2ccc(C(=O)NCCOCCOCCOCCOCCNc3cccc4c3C(=O)N(C3CCC(=O)NC3=O)C4=O)cc2N2CCC(c3[nH]cnc3C)CC2)ccc1F (stereo not shown) [d9A1-2]
